Values quoted from earlier work in patent US7192954B2, “Monocyclic anilide spirohydantoin CGRP receptor antagonists” (Merck & Co., Inc., priority 2003, dated 2007).
Ends that are not written are not given here.

Tests used:
[1] = system: marmoset; details: electrical stimulation of the trigeminal ganglion
[2] = system: rat; details: trigeminal ganglion stimulation
[3] = system: rats; details: electrical stimulation of the dura mater, prior administration

Row | Compound | increase in facial blood flow [1] | increase of facial blood flow [2] | increase of the diameter of the middle meningeal artery [3]
1 | NCCCC[C@H](NC(=O)[C@@H](Cc1cc(Br)c(O)c(Br)c1)NC(=O)N1CCC(N2Cc3ccccc3NC2=O)CC1)C(=O)N1CCN(c2ccncc2)CC1 [BIBN4096BS] | blocked |  | 
2 | CGRP(8–37): a peptide CGRP antagonist (VTHRLAGLLSRSGGVVKNNFVPTNVGSKAF; ends and bridges not checked; UniProt P06881 90-119, looked up, fragment) |  | inhibited | blocked
